According to ChEMBL document CHEMBL1201862, “PubChem BioAssay data set” (2004):
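Briefly, cells in 96-well plates were exposed to five compound concentrations for 48 h, and endpoints were estimated by linear interpolation. GI50: concentration for 50% inhibition of growth.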 Active and inactive are the calls of the source. Rule as the data show it: active = GI50 up to about 1.1 µM and inactive = higher.

Experiments:
Assay in all cases: NCI anticancer screen, dose series, 48 h
SF-295 = system: SF-295
LOX IMVI = system: LOX IMVI
HCT-116 = system: HCT-116
OVCAR-3 = system: OVCAR-3
786-0 = system: 786-0
SK-OV-3 = system: SK-OV-3
OVCAR-4 = system: OVCAR-4
NCI-H23 = system: NCI-H23
NCI-H522 = system: NCI-H522
HOP-62 = system: HOP-62
A498 = system: A498
CCRF-CEM = system: CCRF-CEM
SK-MEL-2 = system: SK-MEL-2
IGROV-1 = system: IGROV-1
SNB-19 = system: SNB-19

Measured: GI50

O=C(CC(=O)N1N=C(n2ccc3ccccc32)CC1c1ccccc1)Nc1cccc(Cl)c1 (centres undefined)
inactive: SF-295 > 100 µM | LOX IMVI 66.4 µM | HCT-116 > 100 µM | OVCAR-3 > 100 µM | 786-0 > 100 µM | SK-OV-3 > 100 µM | OVCAR-4 > 100 µM | NCI-H23 > 100 µM | NCI-H522 > 100 µM | HOP-62 > 100 µM | A498 > 100 µM | CCRF-CEM > 100 µM | SK-MEL-2 > 100 µM | IGROV-1 > 100 µM | SNB-19 > 100 µM

CCSc1nc2n(c(=S)n1)CCN2C
inactive: SF-295 21.9 µM | LOX IMVI 18.4 µM | HCT-116 15.7 µM | OVCAR-3 20 µM | 786-0 18.5 µM | SK-OV-3 21 µM | OVCAR-4 18.5 µM | NCI-H522 5.4 µM | HOP-62 28.6 µM | A498 19.3 µM | SK-MEL-2 19.1 µM | IGROV-1 17.7 µM | SNB-19 20.6 µM

CCCCCCCCCCCCCS(=O)(=O)NCC(N)=O
inactive: SF-295 > 100 µM | LOX IMVI > 100 µM | HCT-116 > 100 µM | OVCAR-3 > 100 µM | 786-0 > 100 µM | SK-OV-3 > 100 µM | OVCAR-4 > 100 µM | NCI-H23 > 100 µM | NCI-H522 > 100 µM | HOP-62 > 100 µM | A498 > 100 µM | CCRF-CEM > 100 µM | SK-MEL-2 > 100 µM | IGROV-1 > 100 µM | SNB-19 > 100 µM

Cc1cccc(N2C(=O)C(Cl)=C(Cl)C2=O)c1
inactive: SF-295 > 100 µM | LOX IMVI > 100 µM | HCT-116 38.6 µM | OVCAR-3 > 50.6 µM | 786-0 > 54.1 µM | SK-OV-3 > 100 µM | OVCAR-4 > 46.3 µM | NCI-H23 > 69.2 µM | NCI-H522 8.91 µM | HOP-62 > 100 µM | A498 > 100 µM | CCRF-CEM 18.5 µM | SK-MEL-2 > 100 µM | IGROV-1 > 100 µM | SNB-19 > 100 µM

Oc1cc(O)c(Oc2cccc(O)c2O)c(O)c1
inactive: SF-295 > 100 µM | OVCAR-3 73.3 µM | 786-0 42.6 µM | SK-OV-3 > 100 µM | OVCAR-4 15.5 µM | NCI-H23 > 100 µM | NCI-H522 49.7 µM | HOP-62 > 100 µM | A498 > 100 µM | CCRF-CEM 33.3 µM | SK-MEL-2 37.8 µM | IGROV-1 > 100 µM | SNB-19 > 100 µM

O=c1[nH]cc(COCCO)c(=O)[nH]1
inactive: SF-295 > 100 µM | LOX IMVI > 100 µM | HCT-116 > 100 µM | OVCAR-3 > 100 µM | 786-0 > 100 µM | SK-OV-3 > 100 µM | OVCAR-4 > 100 µM | NCI-H23 > 100 µM | NCI-H522 > 100 µM | HOP-62 > 100 µM | A498 > 100 µM | CCRF-CEM > 100 µM | SK-MEL-2 > 100 µM | IGROV-1 > 100 µM | SNB-19 > 100 µM

O=C1NC(=O)/C(=N\c2cccc3c(=O)[nH][nH]c(=O)c23)C(c2nc3ccccc3s2)C1=O (centres undefined)
inactive: SF-295 > 100 µM | HCT-116 > 100 µM | OVCAR-3 > 100 µM | 786-0 > 100 µM | SK-OV-3 > 100 µM | OVCAR-4 > 100 µM | NCI-H23 > 100 µM | NCI-H522 > 100 µM | HOP-62 > 100 µM | A498 > 100 µM | CCRF-CEM 55.2 µM | SK-MEL-2 > 100 µM | IGROV-1 > 100 µM | SNB-19 > 100 µM

O=C(NN1C(=O)C(Cl)C1c1cccc(Cl)c1)c1ccccc1O (centres undefined)
inactive: SF-295 68.4 µM | LOX IMVI > 100 µM | HCT-116 > 100 µM | OVCAR-3 > 100 µM | 786-0 > 100 µM | SK-OV-3 > 100 µM | OVCAR-4 > 100 µM | NCI-H23 > 100 µM | NCI-H522 > 100 µM | A498 > 100 µM | CCRF-CEM > 100 µM | SK-MEL-2 > 100 µM | IGROV-1 > 100 µM | SNB-19 > 100 µM

CCN(CC)CCC1(C2CCCCC2)CCC(=O)NC1=O (centres undefined)
inactive: SF-295 > 100 µM | LOX IMVI > 100 µM | HCT-116 > 100 µM | OVCAR-3 > 100 µM | 786-0 > 100 µM | SK-OV-3 > 100 µM | OVCAR-4 > 100 µM | NCI-H23 > 100 µM | NCI-H522 > 100 µM | HOP-62 > 100 µM | A498 > 100 µM | CCRF-CEM > 100 µM | SK-MEL-2 > 100 µM | IGROV-1 > 100 µM | SNB-19 > 100 µM

CCCC(C(=O)OC)C1N/C(=N/C#N)N(Cc2ccccc2)C1=O (centres undefined)
inactive: SF-295 > 100 µM | LOX IMVI > 100 µM | HCT-116 > 100 µM | OVCAR-3 > 100 µM | 786-0 > 100 µM | SK-OV-3 > 100 µM | OVCAR-4 > 100 µM | NCI-H23 > 100 µM | NCI-H522 > 100 µM | HOP-62 > 100 µM | CCRF-CEM > 100 µM | SK-MEL-2 > 100 µM | IGROV-1 > 100 µM | SNB-19 > 100 µM

CC1=C(C(=O)CC(=O)C(=O)Nc2cccc(C)c2C)Sc2ccccc2N1
inactive: SF-295 > 100 µM | LOX IMVI > 100 µM | HCT-116 > 100 µM | OVCAR-3 > 100 µM | 786-0 > 100 µM | SK-OV-3 > 100 µM | OVCAR-4 > 100 µM | NCI-H23 > 100 µM | NCI-H522 > 100 µM | HOP-62 > 100 µM | CCRF-CEM > 100 µM | SK-MEL-2 > 100 µM | IGROV-1 > 100 µM | SNB-19 > 100 µM

COc1ccc(OC)c(NC(=O)C2=C(C)NC(C)=C(C(=O)Nc3cc(OC)ccc3OC)C2c2ccccc2)c1
inactive: SF-295 80.4 µM | LOX IMVI > 100 µM | HCT-116 45.5 µM | OVCAR-3 > 100 µM | 786-0 > 100 µM | SK-OV-3 > 100 µM | OVCAR-4 > 100 µM | NCI-H23 > 100 µM | NCI-H522 > 100 µM | HOP-62 > 100 µM | A498 > 100 µM | CCRF-CEM 48.4 µM | SK-MEL-2 > 100 µM | IGROV-1 > 100 µM | SNB-19 > 100 µM

CC1=C(C(=O)Nc2ccccc2C)C(c2ccc(Cl)cc2)C(C(=O)Nc2ccccc2C)=C(C)N1
inactive: SF-295 > 100 µM | LOX IMVI > 100 µM | HCT-116 > 100 µM | OVCAR-3 > 100 µM | 786-0 > 100 µM | SK-OV-3 > 100 µM | OVCAR-4 > 100 µM | NCI-H23 > 100 µM | NCI-H522 > 100 µM | HOP-62 > 100 µM | CCRF-CEM > 100 µM | SK-MEL-2 > 100 µM | IGROV-1 > 100 µM | SNB-19 > 100 µM

BrC(Br)([P+](c1ccccc1)(c1ccccc1)c1ccccc1)[P+](c1ccccc1)(c1ccccc1)c1ccccc1
inactive: SF-295 29.4 µM | LOX IMVI 13.2 µM | HCT-116 17.3 µM | OVCAR-3 11.9 µM | 786-0 13.5 µM | SK-OV-3 38.5 µM | OVCAR-4 12.1 µM | NCI-H23 16.8 µM | NCI-H522 15 µM | HOP-62 40.5 µM | A498 22.4 µM | SK-MEL-2 16.5 µM | IGROV-1 18.1 µM

O=C(c1ccccc1)c1c(C(=O)c2ccccc2)c(-c2ccccc2)c2c(-c3ccccc3)sc(-c3ccccc3)c2c1-c1ccccc1
inactive: SF-295 > 100 µM | LOX IMVI > 100 µM | HCT-116 > 100 µM | OVCAR-3 > 100 µM | 786-0 > 100 µM | SK-OV-3 > 100 µM | OVCAR-4 > 100 µM | NCI-H23 > 100 µM | NCI-H522 > 100 µM | HOP-62 > 100 µM | A498 > 100 µM | CCRF-CEM > 100 µM | IGROV-1 > 100 µM | SNB-19 > 100 µM

N#CCCN(c1ccc(/C=N/c2nc(-c3ccccc3)cs2)cc1)S(=O)(=O)c1ccccc1
inactive: SF-295 46.2 µM | LOX IMVI > 100 µM | HCT-116 75.3 µM | OVCAR-3 39.8 µM | 786-0 > 100 µM | SK-OV-3 > 100 µM | OVCAR-4 64.7 µM | NCI-H23 78.9 µM | NCI-H522 31.6 µM | HOP-62 96.6 µM | A498 75.9 µM | CCRF-CEM 48.5 µM | SK-MEL-2 86.9 µM | IGROV-1 > 100 µM | SNB-19 > 100 µM

CC(=O)/C(=C\c1ccccc1)C(=O)Nc1ccccc1
inactive: SF-295 44.1 µM | LOX IMVI > 100 µM | HCT-116 > 100 µM | OVCAR-3 > 100 µM | 786-0 > 100 µM | SK-OV-3 > 100 µM | OVCAR-4 > 100 µM | NCI-H23 > 100 µM | NCI-H522 > 100 µM | HOP-62 > 100 µM | CCRF-CEM > 100 µM | SK-MEL-2 > 100 µM | IGROV-1 > 100 µM | SNB-19 > 100 µM

CC[P+]1(c2ccccc2)CCCCC1
inactive: SF-295 > 100 µM | LOX IMVI > 100 µM | HCT-116 > 100 µM | OVCAR-3 > 100 µM | 786-0 > 100 µM | SK-OV-3 > 100 µM | OVCAR-4 > 100 µM | NCI-H23 > 100 µM | HOP-62 > 100 µM | CCRF-CEM > 100 µM | SK-MEL-2 > 100 µM | IGROV-1 > 100 µM | SNB-19 > 100 µM

COc1cc2cnc3c4cc(O)ccc4ccc3c2cc1OC
inactive: SF-295 92.7 µM | LOX IMVI 42.6 µM | HCT-116 > 100 µM | OVCAR-3 17.6 µM | 786-0 61.8 µM | SK-OV-3 > 100 µM | OVCAR-4 26.7 µM | NCI-H23 45.7 µM | NCI-H522 15.6 µM | HOP-62 36.8 µM | CCRF-CEM 29.9 µM | SK-MEL-2 26.4 µM | IGROV-1 75.7 µM | SNB-19 30.7 µM
